From publication PMC12257394, “Design, Synthesis, and Biological Evaluation of Ferrocenyl–Cyclo-(Gly‑L‑Pro) Hybrids Sensitizing Multidrug-Resistant Cancer Cells to Anticancer Agents” (ACS Medicinal Chemistry Letters, 2025)

How the values were obtained:
[1] = test system: ABCG2-overexpressing SW620C cells; assay: MDR reversal assay (ERP), SW620C; assay type: cell-based, human; conditions: SW620C, drug alone, n = 3
Text: (§1) We investigated the potency of 4a–e to inhibit ABC transporters (ABCB1, ABCC1, and ABCG2) by determining their enhancement of reversal potency (ERP) values. ERP represents fold changes in the IC50 values of anticancer drugs in multidrug-resistant cancer sublines (ABCB1-overexpressing SW620D, SW620E, and SW620V; ABCC1-overexpressing SW620M; ABCG2-overexpressing SW620C and SW620Mito) exposed to a combination of the investigated compounds and anticancer agents at equimolar concentrations, compared with values obtained with drugs alone (Tables S2 and S3 and Figure ).
(§2) Standards. Multidrug-resistant variants of SW620 cells were developed in our laboratory as described previously.10, 11 All cells were cultured under standard conditions (37°C, 5% CO2, 100% humidity) in high-glucose DMEM supplemented with GlutaMaxTM, HEPES (ThermoFisher Scientific, USA), and 10% fetal bovine serum (EURx, Poland). Cells were routinely tested for potential Mycoplasma contamination using the MycoProbe Mycoplasma Detection kit (R&D System, USA).
(§3) In total, 104 cells in 100 µL of complete medium were plated per well of a 96-well plate and left overnight to allow cells to adhere to the surface. Then, the cells were exposed to a desired concentration of tested compound(s). Stock solutions were prepared in DMSO and used immediately. The final DMSO concentration was constant and nontoxic (0.1% v/v). After 70-h incubation, neutral red was added to the final concentration of 1 mM. After another 2 h, the medium was aspirated, and cells were washed twice with PBS. Dye was released using 100 µL of a solubilizer (1% acetic acid in 50% ethanol) on an orbital shaker (10 min). Absorbance was read at 540 nm using EnVision Multilabel Plate Reader (Perkin Elmer, USA). Results were expressed as % of control. The IC50 parameters were calculated using GraphPad Prism version 10 (GraphPad Software, Boston, Massachusetts USA).
(§4) The enhancement of reversal potency (ERP) value determination
(§5) For MDR reversal assays, cytotoxic agents were co-administered with compounds 4a–4e at equimolar concentrations in a range of 10 nM to 100 µM. IC₅₀ values were determined in ABCB1-overexpressing SW620 cell line variants. The enhancement of reversal potency (ERP) was calculated using the following formula: ERP = IC₅₀(drug)MDR / IC₅₀(drug + compound)MDR. All experiments were performed in triplicate (n = 3).

[2] = test system: SW620 cells; assay: MDR reversal assay (coadministration with anticancer drug), SW620; assay type: cell-based, human; conditions: SW620, drug alone, n = 3
Text: as §1, §2, §3, §4, §5

[3] = test system: SW620 cells; assay: Neutral red uptake viability assay, SW620; assay type: cell-based, human; conditions: SW620, substance alone (xlsx), read-out: SW620 IC50
Method: (§6) To evaluate this aspect, we investigated the viability of SW620 colon cancer cells and their multidrug-resistant variants (overexpressing ABCB1, ABCC1, and ABCG2) exposed to 1 and 10 μM 4a–e using a neutral red uptake assay (Table ). In general, compounds 4a–e exerted little or no cytotoxic effect on either SW620 or multidrug-resistant sublines even at 10 μM, with the remarkable exception of SW620C (cisplatin-selected variant of SW620) cells, which turned out to be relatively susceptible toward ferrocenyl 4a–c. […] This trend may reflect steric or electronic contributions to cellular uptake or interaction with intracellular targets. […] However, since E/Z isomeric data are currently available only for compound 4c, this hypothesis requires validation. To quantify this effect, IC50 values were determined (Table ). […]
(§7) The normal lung fibroblast MRC-5 and colorectal adenocarcinoma SW620 cell lines used in this experiment were purchased from American Type Culture Collection (USA) via LGC […]
as §2
as §3, with “Massachusetts USA). […]” for “Massachusetts USA).”
(§8) All experiments were performed in triplicate (n = 3).

[4] = test system: SW620D cells (doxorubicin-resistant); assay: Neutral red uptake viability assay, SW620D; assay type: cell-based, human; conditions: Homo sapiens, substance alone (xlsx), read-out: SW620D IC50
Method: as §6, with “In” for “To evaluate this aspect, we investigated the viability of SW620 colon cancer cells and their multidrug-resistant variants (overexpressing ABCB1, ABCC1, and ABCG2) exposed to 1 and 10 μM 4a–e using a neutral red uptake assay (Table ). In”
as §7, §2, §3, §4, §5

[5] = test system: SW620E cells (etoposide-resistant); assay: Neutral red uptake viability assay, SW620E; assay type: cell-based, human; conditions: Homo sapiens, substance alone (xlsx), read-out: SW620E IC50
Method: as §6, §7, §2
as §3, with “Massachusetts USA). […]” for “Massachusetts USA).”
as §8

[6] = test system: ABCB1-overexpressing SW620E cells; assay: MDR reversal assay (ERP), SW620E; assay type: cell-based, human; conditions: Homo sapiens; SW620E, drug alone, n = 3
Text: as §1, §2, §3, §4, §5

[7] = test system: ABCC1-overexpressing SW620M cells; assay: MDR reversal assay (ERP), SW620M; assay type: cell-based, human; conditions: Homo sapiens; SW620M, drug alone, n = 3
Text: as §1, §2, §3, §4, §5

[8] = test system: SW620M cells (methotrexate-resistant); assay: Neutral red uptake viability assay, SW620M; assay type: cell-based, human; conditions: Homo sapiens, substance alone (xlsx), read-out: SW620M IC50
Method: as §6, with “In” for “To evaluate this aspect, we investigated the viability of SW620 colon cancer cells and their multidrug-resistant variants (overexpressing ABCB1, ABCC1, and ABCG2) exposed to 1 and 10 μM 4a–e using a neutral red uptake assay (Table ). In”
as §7, §2
as §3, with “Massachusetts USA). […]” for “Massachusetts USA).”
as §8

[9] = test system: ABCG2-overexpressing SW620Mito cells; assay: MDR reversal assay (ERP), SW620Mito; assay type: cell-based, human; conditions: Homo sapiens; SW620Mito, drug alone, n = 3
Text: as §1, §2, §3, §4, §5

[10] = test system: SW620Mito cells (mitoxantrone-resistant); assay: Neutral red uptake viability assay, SW620Mito; assay type: cell-based, human; conditions: Homo sapiens, substance alone (xlsx), read-out: SW620Mito IC50
Method: as §6, with “In” for “To evaluate this aspect, we investigated the viability of SW620 colon cancer cells and their multidrug-resistant variants (overexpressing ABCB1, ABCC1, and ABCG2) exposed to 1 and 10 μM 4a–e using a neutral red uptake assay (Table ). In”
as §7, §2
as §3, with “Massachusetts USA). […]” for “Massachusetts USA).”
as §8

[11] = test system: MRC-5 fibroblasts; assay: Neutral red uptake viability assay, MRC-5; assay type: cell-based, human; conditions: MRC-5, 10 μM, 72 h exposure, n = 3, ± SD
Method: as §7, §2
as §3, with “Massachusetts USA). […]” for “Massachusetts USA).”
as §8

[12] = test system: SW620V cells (vincristine-resistant); assay: Neutral red uptake viability assay, SW620V; assay type: cell-based, human; conditions: Homo sapiens, substance alone (xlsx), read-out: SW620V IC50
Method: as §6, with “In” for “To evaluate this aspect, we investigated the viability of SW620 colon cancer cells and their multidrug-resistant variants (overexpressing ABCB1, ABCC1, and ABCG2) exposed to 1 and 10 μM 4a–e using a neutral red uptake assay (Table ). In”
as §7, §2, §3, §4, §5

[13] = test system: ABCB1-overexpressing SW620V cells; assay: MDR reversal assay (ERP), SW620V; assay type: cell-based, human; conditions: Homo sapiens; SW620V, drug alone, n = 3
Text: as §1, §2, §3, §4, §5

[14] = test system: ABC-overexpressing cancer cells; set-up: method as in PMID 27326336; conditions: earlier finding; citation mark lost in the text, probably ref 20; cited from earlier work

N.N.[Cl][Pt][Cl] [Cisplatin, reference compound]
IC50 [1]: 27.9 µM
IC50 [2]: 4.34 µM
IC50 [3]: 4.34 µM

COc1cccc2c1C(=O)c1c(O)c3c(c(O)c1C2=O)C[C@@](O)(C(=O)CO)C[C@@H]3O[C@H]1C[C@H](N)[C@H](O)[C@H](C)O1 [Doxorubicin, reference compound]
IC50 ([2]; Homo sapiens, SW-620): 0.342 µM
IC50 ([3]; Homo sapiens, SW-620): 0.342 µM
IC50 [4]: 4.26 µM

COc1cc([C@@H]2c3cc4c(cc3[C@@H](O[C@@H]3O[C@@H]5CO[C@@H](C)O[C@H]5[C@H](O)[C@H]3O)[C@H]3COC(=O)[C@H]23)OCO4)cc(OC)c1O [Etoposide, reference compound]
IC50 ([2]; Homo sapiens, SW-620): 2.6 µM
IC50 ([3]; Homo sapiens, SW-620): 2.6 µM
IC50 [5]: 16 µM
IC50 [6]: 16 µM

CN(Cc1cnc2nc(N)nc(N)c2n1)c1ccc(C(=O)N[C@@H](CCC(=O)O)C(=O)O)cc1 [Methotrexate, reference compound]
IC50 ([2]; Homo sapiens, SW-620): 6.28 µM
IC50 ([3]; Homo sapiens, SW-620): 6.28 µM
IC50 [7]: 54.1 µM
IC50 [8]: 54.1 µM

O=C1c2c(O)ccc(O)c2C(=O)c2c(NCCNCCO)ccc(NCCNCCO)c21 [Mitoxantrone, reference compound]
IC50 ([2]; Homo sapiens, SW-620): 0.151 µM
IC50 ([3]; Homo sapiens, SW-620): 0.151 µM
IC50 [9]: 6.36 µM
IC50 [10]: 6.36 µM

COc1ccc2c(C[C@@H]3NC(=O)[C@@H]4CCCN4C3=O)c(CC=C(C)C)[nH]c2c1 [TrpA, tryprostatin A, reference compound]
survival rate [11]: 97 ± 11%

CC[C@]1(O)C[C@H]2CN(CCc3c([nH]c4ccccc34)[C@@](C(=O)OC)(c3cc4c(cc3OC)N(C=O)[C@H]3[C@@](O)(C(=O)OC)[C@H](OC(C)=O)[C@]5(CC)C=CCN6CC[C@]43[C@@H]65)C2)C1 [Vincristine, reference compound]
IC50 ([2]; Homo sapiens, SW-620): 0.125 µM
IC50 [12]: 24.3 µM
IC50 ([3]; Homo sapiens, SW-620): 0.125 µM
IC50 [13]: 24.3 µM

CC(C)(C)c1[nH]cnc1/C=c1\[nH]c(=O)/c(=C/c2ccccc2)[nH]c1=O [plinabulin]
activity against ABC-overexpressing cancer cells [14]: inactive
